What is called IC50 is the concentration at which inhibition is half-maximal. One may read the half-life as how long it takes for the measured level to halve.

Experimental findings from patent publication US9579317B2, “Peptide-drug conjugates” (JiaRui Biopharmaceuticals, Ltd., priority 2014, dated 2017) are described below.

The subject of series [1] is CT-26 syngenic colon cancer model. The series can be described thus: In vivo antitumor activity, subcutaneous CT-26 syngenic colon cancer model. To be noted: QW, intravenous, three injections. On the set-up: species or system Balb/c mice. As for the experimental part: The tumoricidal effect of peptide-drug conjugate N^α-succinamic acid-Ala-Ala-Asn-PABC-mitomycin [8] was evaluated on subcutaneous CT-26 syngenic colon cancer model in Balb/c mice. Each mouse was inoculated subcutaneously at the right flank region with CT-26 tumor cells (5×10^5) in 0.1 mL of PBS.

The next series deals with Balb/c mice. Kind of series: In vivo maximum tolerated dose (MTD) in Balb/c mice. Details: mortality: dose or concentration left out as unconfirmed.
Another series concerns HCT116. Kind of series: cells. Format: cell-based, human. To be noted: 72 hours, n = 3, mean. As for the experimental part:
(§1) Monolayer cultures of human carcinoma cells were harvested using trypsin-EDTA, and the cells counted and resuspended to 1×10^5/mL in RPMI-1640 or DMEM containing 10% FBS. Cells (0.1 mL/well) were added to each well of 96 well microtiter plates and incubated overnight at 37° C. in a humidified atmosphere of 5% CO2. […] All dilutions were performed in triplicate. The drug treated cells were incubated for another 72 hours at 37° C. in a humidified atmosphere of 5% CO2. 50 μL of cold TCA (50%, wt/vol) was added to each well and incubated the plates at 4° C. for 1 hour. The plates were washed with slow-running tap water for three times and the dried at room temperature. 50 μL of Sulforhodamine B solution (0.4%, wt/vol) was added to each well and the plates were left at room temperature for 1 hour. The plates were rinsed with acetic acid solution (1%, vol/vol) to remove the unbound dye and dried at room temperature. 200 μL of 10 mM Tris base solution was added to each well and the plates were shaken on a gyratory shaker for 15 minutes to solubilize the protein-bound dye. Well optical density at 510 nm was measured in a microplate reader, and the IC50 was calculated by GraphPad from three separated experiments with triplicate in each experiment and expressed as mean (Table 1).

The test system of a further series is HepG2. Kind of series: cells. The format is cell-based, human. The settings on record: 72 hours, n = 3, mean. How it is done:
as §1

The next series can be described thus: Human plasma stability. As for the experimental part: 100 μL aliquots were removed at the time points of 0, 0.25, 0.5, 1, 2, 4, 6 hours and diluted with 400 μL cold acetonitrile containing tolbutamide (200 ng/mL) as internal standard. The samples were centrifuged at 14,000 rpm for 4 minutes. 100 μL of above supernatants were diluted with 300 μL of 0.1% formic acid HPLC water and 10 μL was taken for LC/MS/MS analysis (column: C-18; mobile phase: 0.1% formic acid in water/0.1% formic acid in acetonitrile; ion transition: Q1 ion (m/z)=840.5, Q2 ion (m/z)=462.2).

Where [2] appears, read: 25, 50 and 100 mg/kg, once per week, three injections total for 24 days.

On to `CO[C@@]12[C@H](COC(N)=O)C3=C(C(=O)C(C)=C(N)C3=O)N1C[C@H]1[C@@H]2N1C(=O)OCc1ccc(NC(=O)[C@H](CC(N)=O)NC(=O)[C@H](C)NC(=O)[C@H](C)NC(=O)CCC(=O)O)cc1` [compound 8, N^α-succinamic acid-Ala-Ala-Asn-PABC-mitomycin], for which the “tumor growth T/C versus untreated control” value in series [1] (50 mg/kg, p<0.01) is 36.4%. Moreover, the appearance entry in the series with Balb/c mice (setting [2]) was “no abnormal appearance”. In addition, the “body weight (loss)” value in the series with Balb/c mice (setting [2]) is on record as less than 10%. Further, the “increase of mice maximum tolerated dose (MTD) as compared with parent drug mitomycin” value with Balb/c mice (Balb/c mice) is given as “at least 20 fold”. For the same molecule, the IC50 was 6.65 µM in the series on HCT116 and 2.48 µM with HepG2. Also, in “Human plasma stability” (human plasma incubation, 10 μM, 37° C.), the “free drug mitomycin detected” value is “Less than 2%”. The molecule further gave a half-life at 10 μM in “Human plasma stability” (human, plasma) greater than 15 h.

Consider `CO[C@@]12[C@H](COC(N)=O)C3=C(C(=O)C(C)=C(N)C3=O)N1C[C@@H]1N[C@@H]12` [mitomycin, reference compound], for which, in series [1] (5 mg/kg (MTD dose)), the “tumor growth T/C” value is given as 50.4%. Besides, the mortality result with Balb/c mice was “animal death was observed”. Also, the IC50 in the series on HCT116 (Homo sapiens, HCT-116) was 0.116 µM; in the series on HepG2 (Homo sapiens, HepG2), 0.143 µM.
